In BindingDB's records for doi:10.1021/jm021073r (University of Bath, 2003):

Target: Kappa-type opioid receptor (Homo sapiens, UniProt P41145)
Assay: Stimulation of U-69,593 binding at human recombinant Opioid receptor kappa 1 transfected into CHO cells.

Sequence of Kappa-type opioid receptor (P41145 whole entry): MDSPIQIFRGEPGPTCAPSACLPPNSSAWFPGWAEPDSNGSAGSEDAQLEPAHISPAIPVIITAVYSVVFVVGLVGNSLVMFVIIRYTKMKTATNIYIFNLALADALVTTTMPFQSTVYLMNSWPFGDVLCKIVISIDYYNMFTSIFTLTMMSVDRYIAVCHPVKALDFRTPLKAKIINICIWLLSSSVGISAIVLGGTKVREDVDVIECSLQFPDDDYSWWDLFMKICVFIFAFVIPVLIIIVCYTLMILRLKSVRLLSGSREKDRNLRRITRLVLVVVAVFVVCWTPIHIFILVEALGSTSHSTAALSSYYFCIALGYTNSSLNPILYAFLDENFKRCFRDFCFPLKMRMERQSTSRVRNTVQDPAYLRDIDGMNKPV

SMILES	EC50 [nM]
CN1CC[C@]23c4c5ccc(O)c4O[C@H]2c2[nH]c4ccccc4c2C[C@@]3(NC(=O)CCc2ccccc2)C1C5	9.5
CN1CC[C@]23c4c5ccc(O)c4O[C@H]2c2[nH]c4ccccc4c2C[C@@]3(N)C1C5	87
CCN[C@@]12Cc3c([nH]c4ccccc34)[C@@H]3Oc4c(O)ccc5c4[C@@]31CCN(C)C2C5	98
CCCCCCC(=O)N[C@@]12Cc3c([nH]c4ccccc34)[C@@H]3Oc4c(O)ccc5c4[C@@]31CCN(C)C2C5	57
